Tests used:
[1] = Brain levels of glutathione following oral administration; format: in vivo; settings: C57BL/6 mice, 100 mg/kg oral, 4 hours; for glutathione in the brain: brain tissue
Protocol: A compound of the invention was administered orally to C57BL/6 mice at either 10 or 100 mg/kg. Brain samples were collected at 0.25, 0.50, 1, 2 and 4 hours following the oral administration. Levels of NAC and glutathione were quantified in the brain samples using liquid chromatography-mass spectrometry (LC-MS/MS).

[2] = tested on: Rats; experiment: Elevated-plus maze; format: in vivo; settings: for time spent on the open arms: one hour prior to testing, five minute session
Protocol: Rats were tested in a standard elevated plus maze; testing occurred in a dimly illuminated room using only two lights mounted over the maze. Animals were allowed to habituate to the room for at least one hour prior to treatment. One hour prior to testing, rats received a compound of the present invention (0-30 mg/kg, P.O.). For testing, the rat was placed in the elevated plus maze for five minutes, alternating the starting position between facing an open arm and facing a closed arm. The session was recorded and an observer blind to treatment recorded the number of explorations, entries and time spent in the open arm. Explorations were defined as the rat placing two feet into an open arm without fully entering said arm. Entries were defined as the rat placing all four feet in an open arm. Time of entry in the open arm was recorded from the time the rat placed four feet in the open arm until two of the rats' feet entered the open square.

[3] = tested on: Rats; experiment: Prepulse inhibition experiment (MK-801-induced deficit); format: in vivo; settings: MK-801 0.1 mg/kg SC, MK-801 + vehicle control about 16%
Protocol: Rats were placed on a platform in a sound attenuating chamber (10.875″×14″×19.5″; Hamilton Kinder, CA) that rested on a motion sensing plate. During all sessions, the background noise was held constant at 60 dB. A matching session was conducted to determine the magnitude of the average startle response for each rat. This session consisted of a five minute habituation period followed by 20 trials; 17 trials involved the presentation of a single auditory stimulus (pulse stimulus; 50 dB above the background noise) and three trials in which a pre-pulse stimulus (12 db above background) was presented 100 ms before the pulse auditory stimulus. Rats were then assigned into the various treatment groups so that the magnitude of the startle response was equivalent across all groups. Two days later, a testing session was conducted to assess sensorimotor gating. One hour prior to testing, rats received a prodrug (0-100 mg/kg, P.O.) and 55 minutes later acute MK-801 maleate (0.1 mg/kg, SC). The testing session consisted of a five minute habituation period, after which rats received 58 discrete trials; 26 trials during which the pulse stimulus (50 db above background) was presented alone, eight trials each in which the pulse stimulus was preceded by a prepulse stimulus (5, 10, or 15 db above background) and eight background trials with no pulse (No stimulus; background noise only). The first six pulse alone trials were not included in the average startle stimulus to achieve a relatively stable level of startle reactivity. All startle responses were normalized to vehicle control, and the percent of prepulse inhibition was determined as 100-(average prepulse startle response/average startle stimulus alone)*100.

[4] = target: T1, System xc− (Homo sapiens, UniProt Q9UPY5); experiment: 3H-glutamate release from human glial cells from brain astrocytoma (1321N1); format: cell-based; settings: at 3 hours, 1321N1 cells
T1 construct: in vitro culture system of human glial cells from brain astrocytoma (1321N1); endogenous in cells; host or cells: 1321N1 human astrocytoma cells
T1 sequence (Q9UPY5 1-501): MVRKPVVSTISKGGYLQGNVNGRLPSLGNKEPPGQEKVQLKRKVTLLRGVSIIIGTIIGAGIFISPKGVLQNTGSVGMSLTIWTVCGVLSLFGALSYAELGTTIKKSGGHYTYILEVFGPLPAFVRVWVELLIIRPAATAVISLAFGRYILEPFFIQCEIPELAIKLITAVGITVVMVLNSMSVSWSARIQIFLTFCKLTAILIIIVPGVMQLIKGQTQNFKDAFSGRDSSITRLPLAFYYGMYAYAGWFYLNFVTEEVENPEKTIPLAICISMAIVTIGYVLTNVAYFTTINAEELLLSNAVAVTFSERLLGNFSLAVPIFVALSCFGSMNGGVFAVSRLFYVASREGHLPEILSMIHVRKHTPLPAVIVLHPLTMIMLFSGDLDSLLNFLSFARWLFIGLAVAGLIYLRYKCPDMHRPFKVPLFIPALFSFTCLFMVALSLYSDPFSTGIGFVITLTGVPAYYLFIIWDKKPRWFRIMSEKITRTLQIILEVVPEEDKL
T1 sequence (P08195 1-529 partner): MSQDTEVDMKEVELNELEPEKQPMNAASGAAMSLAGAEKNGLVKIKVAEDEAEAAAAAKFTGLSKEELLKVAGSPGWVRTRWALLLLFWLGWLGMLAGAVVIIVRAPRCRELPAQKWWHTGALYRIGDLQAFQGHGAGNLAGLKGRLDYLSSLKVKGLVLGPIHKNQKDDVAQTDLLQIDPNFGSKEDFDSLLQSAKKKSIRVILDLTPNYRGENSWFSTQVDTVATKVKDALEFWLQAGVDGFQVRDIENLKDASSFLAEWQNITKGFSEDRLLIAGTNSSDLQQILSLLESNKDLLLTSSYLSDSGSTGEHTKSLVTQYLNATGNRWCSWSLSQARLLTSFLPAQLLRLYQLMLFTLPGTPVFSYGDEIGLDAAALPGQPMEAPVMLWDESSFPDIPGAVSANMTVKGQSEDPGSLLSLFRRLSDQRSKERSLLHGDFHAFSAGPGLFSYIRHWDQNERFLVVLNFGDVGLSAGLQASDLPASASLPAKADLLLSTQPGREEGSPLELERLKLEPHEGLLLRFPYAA
Protocol: This assay also uses the cell culture system of human glial cells from brain astrocytoma (1321N1) described above. Initially, cells are washed with HBBSS, and ^3H-glutamate is added (PerkinElmer: 1 mCi/mL stock solution is diluted (30 μL+500 HBBSS) and 10 μL of diluted radiolabel is added to each well). Following a 1 hour incubation to load the cells with the labeled glutamate, the cells are washed again with HBBSS, and the drug is added. At 30, 90, and 180 minutes, 50 μL of extracellular media is sampled from each well and is measured using a Beckman LS 6500 scintillation counter.

[5] = 10 mg/kg P.O. one hour prior to testing

increase in 3H-glutamate release ([4]; 300 μM)	increase in 3H-glutamate release ([4]; 100 μM)	Compound	glutathione in the brain, times that of the vehicle [1]	glutathione in the brain [1]	increase of time spent on the open arm ([2]; 10 or 30 mg/kg PO)	time spent on the open arms ([2]; 10 or 30 mg/kg PO)	% prepulse inhibition [3, 5]	increase of time on the open arms over control ([2]; 10 mg/kg PO)	time spent on the open arms ([2]; 10 mg/kg PO)	% prepulse inhibition ([3]; 3 mg/kg P.O. one hour prior to testing)
approximately 135%	–	CC(=O)N[C@@H](CSC(=O)c1ccc(C)cc1)C(=O)O [Pro-2023, (2R)-2-Acetylamino-3-(4-methyl-benzoylsulfanyl)-propionic acid]	about 2 times	about 200 nmol/g	about 100%	around 27 seconds	about 30%	–	–	–
–	approximately 40%	CCOC(=O)[C@H](CSC(=O)C1CSC(=O)N1)NC(C)=O (stereo partly drawn) [Pro-4047, Ethyl (2R)-2-acetamido-3-(2-oxo-1,3-thiazolidine-4-carbonylsulfanyl) propanoate]	–	–	–	–	–	not a significant increase over control	around 22 seconds	about 23%
approximately 100%	–	CCOC(=O)[C@H](CSC(=O)c1ccc(C)cc1)NC(C)=O [Pro-4051, Ethyl (2R)-2-acetamido-3-(4-methylbenzoylsulfanyl)propanoate]	about 1.05 times	about 1960 nmol/g	–	–	about 46%	~150%	around 48 seconds	–

Reference: patent US10961187B2, “Substituted N-acetyl-L-cysteine derivatives and related compounds” (Promentis Pharmaceuticals, Inc., priority 2013, dated 2021)
